We go through 3 compounds from patent US20130324606A1, “Ester Derivatives of Bimatoprost Compositions and Methods” (ALLERGAN, INC., priority 2011, published 2013).

The test system of data set [1] is human hair dermal papilla cells, HHDPC. Description: Cellular dielectric spectroscopy (CDS) in dermal papilla cells. It counts as cell-based. The conditions noted are these: for EC50: cell impedance, tested range 10^−4 to 10^−13 mol/L. Here is the method:
Cellular dielectric spectroscopy (CDS) was conducted in an assay of dermal papilla cells (i.e., human hair dermal papilla cells, HHDPC) with bimatoprost and Cmpds IVc and IVb. As known in the art, CDS is a real-time, non-invasive, label-free, high-throughput, cell-based assay which measures electrical cell impedance. Without wishing to be bound by any theory, it is believed that GPCR activation induces changes in cell morphology, cell-cell interaction, and cell adherence which manifest as a change in cell impedance.

The nature of data set [2]: In vitro human skin penetration (Franz diffusion chamber). It is filed as in vitro ADME. The conditions noted are these: FIGS. 14A-14C, 6, 24, 48 hr.
For data set [3], the system named is C57Black/6J mice. Description: Piliation (hair regrowth) studies in mice. It counts as in vivo. Conditions: for pharmacological efficacy relative to bimatoprost: mouse hair regrowth, vehicle Formulation A. Here is the method:
C57Black/6J, 7-week old female mice (n=10) were employed in piliation studies. Dorsal hair was shaved (area ˜2 cm×4 cm). Dosing of active agent was once per day (QD) by topical administration for 14 days. Observations were conducted for 42-days to determine onset of new hair growth and day of hair growth completion. Compounds were formulated as either a) 50% propylene glycol, 30% ethanol, 20% water, or b) the formulation of Formulation A described above. The experiments reported for FIGS. 4A-4B, 5A-5B, 6A-6B, 8A-8B, and 9A-9B were conducted using a vehicle with formulation of 50% propylene glycol, 30% ethanol, 20% water. The experiments reported for FIGS. 7A-7B were conducted using a vehicle of Formulation A described above.
For each of FIGS. 4A, 5A, 6A, 7A, 8A and 9A, the histograms depict the day of onset of hair growth. For each of FIGS. 4B, 5B, 6B, 7B, 8B and 9B, the histograms depict the day achieving full hair growth.

The nature of data set [4]: Formulation and stability studies. It counts as physicochemical. Conditions: variations of Formulation A, 0.03% active, pH 4, 5, 6 and 7; 25, 40 and 60° C.; zero time and 80-days. Here is the method: Stability over time of compounds disclosed herein was determined in formulation as a function of temperature and pH. Variations of Formulation A described herein were employed wherein the target concentration of active agent was 0.03%, and the pH was varied at pH 4, 5, 6 and 7. Temperatures of 25° C., 40° C. and 60° C. were maintained during the experiment. Samples were evaluated at zero time and 80-days.
Cmpds IVa, IIIb, and IVb for evaluated for stability.
FIGS. 1A-1B, 2A-2B, and 3A-3B depict histograms of relative concentrations of test compounds (arbitrary scale) at zero time or 80-days. FIG. 1A depicts a histogram of the stability profile of Cmpd IVa as a function of pH and temperature. FIG. 1B depicts a histogram of the formation of bimatoprost as a function of pH and temperature after 80-days for Cmpd IVa. FIG. 2A depicts a histogram of the stability profile of Cmpd IVb as a function of pH and temperature. FIG. 2B depicts a histogram of the formation of bimatoprost as a function of pH and temperature after 80-days for Cmpd IVb. FIG. 3A depicts a histogram of the stability profile of Cmpd IIIb as a function of pH and temperature. FIG. 3B depicts a histogram of the formation of bimatoprost as a function of pH and temperature after 80-days for Cmpd IIIb.

Data set [5] is described as follows: In vitro human skin penetration (Franz diffusion chamber). It counts as in vitro ADME. The conditions noted are these: for skin penetration (cumulative amount in receptor solution) relative to bimatoprost / penetration flux relative to bimatoprost / Percentage Dose Applied, Receptor Chamber Solution, Prodrug / Percentage Dose Applied, Upper ⅓ Dermis, Prodrug: 0.03% in Formulation A; for skin penetration (cumulative amount in receptor solution) relative to bimatoprost: FIG. 13A; for penetration flux relative to bimatoprost: FIG. 13B; for Percentage Dose Applied, Receptor Chamber Solution, Prodrug: Franz chamber; for Percentage Dose Applied, Receptor Chamber Solution, Prodrug / Percentage Dose Applied, Upper ⅓ Dermis, Prodrug: dosed compound; for Percentage Dose Applied, Upper ⅓ Dermis, Prodrug: dermis at 48 hrs; for conversion to bimatoprost in the SC/Epi/Dermis layers: FIG. 15A; for amount of active agent in the upper third of the dermis relative to bimatoprost: FIG. 15B. The text has this: Test material: Dermatomed ex vivo human cadaver posterior trunk skin on 1.0 cm^2 Franz diffusion chamber as known in the art. Test size: 3 skin donors (obtained from New York Firefighters Skin Bank), 3 replicates per donor per formulation. Test formulations: 0.03% active agent (Cmpd IVa, Cmpd IIIb, Cmpd IVb) in Formulation A; control formulation: bimatoprost at 0.03% in Formulation A. Dosing regimen: receptor fluid at 2, 4, 24, and 48 hrs; SC/epidermis and dermis at 48 hrs. Sample analysis: LC/MS-MS to detect bimatoprost and Cmpds IVa, IIIb and IVb.

Data set [6] concerns reconstructed human epidermis (RHE). Description: In vitro dermal irritation screening in reconstructed human epidermis. It is filed as cell-based. The conditions noted are these: concentration 0.03%, Formulation A vehicle. How it is done:
In vitro irritation screening assays were conducted for compounds described herein. Test system was the reconstructed human epidermis (RHE), as known in the art. Single dosing was employed, and endpoints were evaluated as a function of time up to 24-hrs. Endpoints were tissue viability and IL-1α release.
Test compounds included Cmpds IVa (0.03%), IIIb (0.03%), IVb (0.03%), bimatoprost (0.03%), minoxidil (5%, foam), and minoxidil (5%, solution). Administration of Cmpds IVa, IIIb, IVb and bimatoprost employed the vehicle of Formulation A. See Table 1 above. Administration of minoxidil employed minoxidil vehicle with formulation 20% H2O, 50% propylene glycol, and 30% ethanol.

Data set [7] is described as follows: microAmes mutagenesis screen. It counts as cell-based. The conditions noted are these: with or without metabolic activation. From the text: Cmpds IVa, IIIb, and IVb were subjected to the microAmes screen, as known in the art.
Data set [8] in a line: Dermal tolerability in rats. It is filed as in vivo. The conditions noted are these: female rats; for change in food consumption and body weight gain (in words): 3 mg/kg/day daily for 8 days; for Body Weight Gain (g) Mean ± SD / Food Consumption (g) Mean ± SD: dermal 3 mg/kg/day daily for 8 days, Formulation A. How it is done: Female rats were administered either vehicle or one of Cmpds IVa, IIIb, or IVb daily for 8 days. The administered dose was 3 mg/kg/day, at a concentration of 3 mg/mL. Observed data were body weight, viability, food consumption, and dermal observation (skin reaction grading), as known in the art. The vehicle was Formulation A. See Table 1 above.

A short description of data set [9]: Pharmacokinetic assessment of mouse hair regrowth model. It counts as in vivo. Conditions: mice, 0.03% dermal daily ~60 uL, all measured time points, LC/MS-MS. How it is done: Female C57BL/6J mice (n=2) were assayed per time point per treatment group. Treatment groups: (1) vehicle; (2) 0.03% Cmpd IVa; (3) 0.03% Cmpd IIIb; (4) 0.03% Cmpd IVb; (5) 0.03% bimatoprost. Treatment dosing: dermal daily application of ˜60 uL test compound solution. Blood and skin pharmacokinetic time points were obtained at day 1 (1, 4, 8 and 24-hrs post-dose); day 2 (24-hrs post-dose); day 14 (24-hrs post-dose); and day 42 (28 days post day 14 dose). Bioanalysis employed LC/MS-MS.

The test system of data set [10] is mouse skin. Description: Pathology assessment of mouse hair regrowth model. It is filed as in vivo, mice. Conditions: histology, 0.03% active, vehicle control still in growth phase. From the text:
Histological samples from test subjects employed in the studies described in Example 12 were obtained for pathology assessment.

The nature of data set [11]: Partitioning in artificial sebum. It is filed as physicochemical. Here is the method:
Compounds bimatoprost, Cmpd IVa, and Cmpd IIIb were added to aqueous solution (1 mL, 2-20 ug/mL), with and without 1-20 mg artificial sebum. Samples were shaken for 16 hr at 37° C. Samples were then centrifuged (8000 RPM) for 15 min at room temperature, prior to collection of the aqueous solution. Samples were analyzed for concentration of compound without artificial sebum (i.e., Co) and with artificial sebum (i.e., Ci) by mass spectroscopy. Artificial sebum and water partition coefficient (Ksebum) was expressed as the concentration of drug in 1 g of artificial sebum divided by the concentration of drug in 1 g of aqueous solution, and was calculated as Ksebum=(Co−Ci)Waqueous/(Ci×Wsebum) (Eqn. 1), where W represents weight.
Artificial sebum was prepared as follows: 15% (w/w) squalene, 15% spermaceti, 10% coconut oil, 1.5% oleic acid, 5% palmitic acid, 2.4% cholesterol oleate, 10% paraffin wax, 10% olive oil, 25% cottonseed oil, 5% palmitoleic acid, 1.2% cholesterol. The melting point of the semi-liquid was 37° C.

The structures appear in SMILES notation.

Regarding `CCCC(=O)O[C@H](/C=C/[C@@H]1[C@@H](C/C=C\CCCC(=O)NCC)[C@@H](O)C[C@H]1O)CCc1ccccc1` [Cmpd IVc, 15-butyryl bimatoprost], in [1], the “change in cell impedance” value is given as “not observed to provide a change in cell impedance” and the EC50 result is reported as “could not be determined”.
As to `CCNC(=O)CCC/C=C\C[C@@H]1[C@@H](/C=C/[C@H](CCc2ccccc2)OC(=O)CC)[C@H](O)C[C@@H]1O` [Cmpd IVb, 15-propionyl-bimatoprost], in data set [2], the “conversion to bimatoprost in the receptor chamber solution” value is given as “observed to convert to bimatoprost”. In addition, the “days for hair growth to commence (day of onset of hair growth)” value in data set [3] (0.03%, topical QD 14 days, vehicle 50% propylene glycol, 30% ethanol, 20% water, FIG. 6A) was determined as 16 days. The “days for full hair growth to be achieved” value in data set [3] (0.03%, topical QD 14 days, vehicle 50% propylene glycol, 30% ethanol, 20% water, FIG. 6B) is recorded as 32 days. In addition, the “activity in the time required to regain full hair growth (ranking)” value in data set [3] (among compounds tested at 0.03%) is on record as “best activity”. Also, in data set [3], the “pharmacological efficacy relative to bimatoprost” value is listed as “approximately equivalent efficacy”. The stability in formulation entry in data set [4] is “stable in formulation”. Also, in [5], the “skin penetration (cumulative amount in receptor solution) relative to bimatoprost” value is “significantly greater than for bimatoprost”; the “penetration flux relative to bimatoprost” value is listed as “greater than that for bimatoprost”; the “Percentage Dose Applied, Receptor Chamber Solution, Prodrug” value is 2.1 Percentage Dose Applied; the “Percentage Dose Applied, Upper ⅓ Dermis, Prodrug” value is on record as 1.9 Percentage Dose Applied. Moreover, in [5], the “conversion to bimatoprost in the SC/Epi/Dermis layers” value was “converted to bimatoprost” and the “amount of active agent in the upper third of the dermis relative to bimatoprost” value is listed as “less than observed for bimatoprost”. Further, in data set [6], the “potential for irritation of the human skin” value was “no indication of potential for irritation”. In addition, the “mutagenicity in microAmes screen” value in data set [7] is listed as “not mutagenic”. Moreover, in data set [8], the “change in food consumption and body weight gain (in words)” value was “decreases in both food consumption and body weight gain”; the “Body Weight Gain (g) Mean ± SD” value is listed as 0.3 ± 6.7 g; the “Food Consumption (g) Mean ± SD” value was 19.19 ± 1.32 g. Moreover, the “level in the systemic circulation” value in data set [9] was “most undetectable”. In addition, in data set [10], the “hair cycle phase at day-42” value is “returned to the resting phase”. In [1], the “change in cell impedance” value is “not observed to provide a change in cell impedance” and the EC50 result is reported as “could not be determined”.
On to `CCNC(=O)CCC/C=C\C[C@@H]1[C@@H](/C=C/[C@@H](O)CCc2ccccc2)[C@H](OC(=O)CC)C[C@@H]1O` [Cmpd IIIb, 11-propionyl bimatoprost], for which, in data set [2], the “conversion to bimatoprost in the receptor chamber solution” value is “observed to convert to bimatoprost”. Moreover, the “pharmacological efficacy relative to bimatoprost” value in data set [3] is listed as “approximately equivalent efficacy”. The stability in formulation entry in data set [4] is listed as “stable in formulation”. In [5], the “skin penetration (cumulative amount in receptor solution) relative to bimatoprost” value is “significantly greater than for bimatoprost”; the “penetration flux relative to bimatoprost” value is given as “greater than that for bimatoprost”; the “Percentage Dose Applied, Receptor Chamber Solution, Prodrug” value amounted to 0.8 Percentage Dose Applied; the “Percentage Dose Applied, Upper ⅓ Dermis, Prodrug” value was determined as 2.1 Percentage Dose Applied. Moreover, in [5], the “conversion to bimatoprost in the SC/Epi/Dermis layers” value is “converted to bimatoprost” and the “amount of active agent in the upper third of the dermis relative to bimatoprost” value was “less than observed for bimatoprost”. Moreover, in data set [6], the “potential for irritation of the human skin” value is given as “no indication of potential for irritation”. In addition, the “mutagenicity in microAmes screen” value in [7] is “not mutagenic”. Besides, in data set [8], the “change in food consumption and body weight gain (in words)” value is recorded as “no significant change in food consumption or body weight gain”; the “Body Weight Gain (g) Mean ± SD” value was 10.0 ± 6.1 g; the “Food Consumption (g) Mean ± SD” value was 22.8 ± 1.36 g. Further, in [8] (3 mg/kg/day, days 2-4), the “dermal observation: signs of irritation” value was “minimal and transient signs of irritation”. In addition, the “level in the systemic circulation” value in [9] is “most undetectable”. The “phase in which the majority of compound remains” value in data set [11] (artificial sebum / aqueous solution) was “remain in the aqueous phase”. Also, the “Ave. Ksebum (artificial sebum and water partition coefficient)” value in data set [11] (n = 4, 16 hr at 37° C.) was 6.1. In addition, the “hair cycle phase at day-42” value in [10] is “returned to the resting phase”.
